The subject of one assay is TNF-α. The assay is described as follows: High throughput screening in LPS stimulated THP-1 cells, TNF-α release by ELISA. The assay is classed as cell-based. The method, then:
(§1) The assay was designed on the basis of the reference, The Journal of Immunology, 1993, 151 (10), 5631-5638, the disclosure of which is incorporated by reference for the teaching of the assay.
(§2) THP-1 (ATCC, USA) cells were cultured in RPMI 1640 (Roswell Park Memorial Institute) culture medium (Gibco BRL, Pasley, UK) containing 100 U/ml penicillin, […] streptomycin (100× solution, Sigma Chemical Co. St Louis, Mo., USA) and 10% fetal bovine serum (Gibco BRL, Pasley, UK). The cells were differentiated into macrophages with phorbol myristate acetate (Sigma, USA) in 96 well culture plates. Following cell plating, various concentrations of the compound of formula I or the compound of formula II or vehicle (0.5% DMSO) were added to each well and the plate was incubated for 30 min at 37° C. Finally, per well, 20 μL of LPS (10 μg/mL stock solution) (Escherchia coli 0127:B8, Sigma Chemical Co., St. Louis, Mo.) was added for a final concentration of 1 μg/mL. Plates were incubated at 37° C. for 24 hours in an atmosphere of 5% CO2. Supernatants were harvested, and assayed for TNF-α and IL-6 by ELISA as described by the manufacturer (BD Biosciences). Percent inhibition of cytokine release compared to the control was calculated. The 50% inhibitory concentration (IC50) values were calculated by a nonlinear regression method.
(§3) Dexamethasone was used as standard.
For orientation: ELISA stands for enzyme-linked immunosorbent assay.

In another assay the test system is IL-6. Kind of assay: High throughput screening in LPS stimulated THP-1 cells, IL-6 release by ELISA. The assay is classed as cell-based. As to the method:
as §1, §2, §3

Where [1] appears, read: Homo sapiens, LPS (1 μg/mL) stimulated THP-1 cells differentiated with PMA, 24 hours, ELISA.
[2] abbreviates: preparative HPLC fractions tested by method of Example 7.
The mark [3] stands for this setting: Homo sapiens, at 1 μg/ml, LPS stimulated THP-1 cells.

Results on two compounds are retold here after US8263579B2, “Anti-inflammatory compounds” (Piramal Healthcare Limited, priority 2011, dated 2012).

As usually defined, the IC50 is the point on the concentration scale where inhibition reaches its midpoint. In the case of `CCCCCCCCCCCCO/N=N/OC` [Compound of formula II], the figures for the IC50 with TNF-α (setting [1]) and in the assay with IL-6 (setting [1]) were 1.5 µg/mL and 1.2 µg/mL, respectively. For the same compound, the “TNF-α inhibition of HPLC fractions (qualitative)” value in the assay on TNF-α (setting [2]) was “exhibited IL-6 and TNF-α inhibition”. For the same compound, in the assay with IL-6 (setting [2]), the “IL-6 inhibition of HPLC fractions (qualitative)” value was “exhibited IL-6 and TNF-α inhibition”.
As a reminder, the inhibition is the drop in the measured response relative to a control, in per cent. `C[C@@H]1C[C@H]2[C@@H]3CCC4=CC(=O)C=C[C@]4(C)[C@@]3(F)[C@@H](O)C[C@]2(C)[C@@]1(O)C(=O)CO` [Dexamethasone, reference compound]: the inhibition at 1 µg/mL was found to be 73% in the assay on TNF-α (setting [3]) and 84% in the assay with IL-6 (setting [3]).
